Publication PMC5695697 (Cell chemical biology, 2017)

What was measured:
H3K9 acetylation = H3K9 acetylation Western blot in human NPCs and neurons; type: cell-based; conditions: ACY-1215 5 μM, tubastatin A 10 μM, CI-994 10 μM, Cpd-60 5 μM (Figure S1)
FXN mRNA = test: FXN; type: cell-based, human; conditions: 18-day neurons, 24 h; SAHA 10 μM, CI-994 10 μM, Cpd-60 5 μM
[1] = system: H3K27 acetylation on GRN promoter; test: H3K27 acetylation ChIP-qPCR on GRN promoter/enhancer region in NPCs; type: cell-based, human; conditions: 24 hours, panobinostat 0.5 μM, CI-994 10 μM; for H3K27 acetylation in ChIP Region 3: to varying levels
[2] = system: recombinant human Class I HDACs (HDAC1, HDAC2, HDAC3); test: In vitro HDAC enzymatic assay with varied pre-incubation time; type: biochemical; conditions: pre-incubation 0–3 hours, Figure S5
HDAC = conditions: ref Schroeder et al., 2013; Chou et al., 2008; cited from earlier work
GRN mRNA = GRN mRNA expression by qPCR in human iPSC-derived NPCs and neurons; type: cell-based
MSR293 cells = test: GRN mRNA / PGRN expression in MSR293 cells; type: cell-based, human; conditions: MSR293 cells (HEK293 derivative), Figure S3
PGRN protein = type: cell-based, human
[3] = 2010, cited from earlier work
[4] = human NPCs, CI-994 for up to 72 hours
[5] = human neurons, CI-994 10 μM, 24 h

Compound: O=C(CCCCCCNC(=O)c1cnc(N(c2ccccc2)c2ccccc2)nc1)NO [ACY-1215]
- H3K9 acetylation (H3K9 acetylation): as strong of an induction

Compound: CC(=O)Nc1ccc(C(=O)Nc2ccccc2N)cc1 [CI-994]
- FXN (frataxin) mRNA levels (FXN mRNA): significantly increased
- H3K27 acetylation in ChIP Region 2 [1]: Neither compound treatment increased
- H3K27 acetylation in ChIP Region 3 [1]: increased
- change of potency with prolonged incubation (in vitro kinetic profile) [2]: slow-binder
- binding kinetics, mechanism of action (HDAC): slow-on/slow-off
- GRN mRNA levels, extended treatment (GRN mRNA; [4]): did not significnatly enhance
- GRN mRNA (GRN mRNA; [5]): statistically significant decrease
- upregulating GRN mRNA or PGRN (MSR293 cells): ineffective
- intracellular PGRN (PGRN protein; NPCs, CI-994 10 μM, 24 h): decrease
- secreted PGRN (PGRN protein; NPCs, CI-994 10 μM, 24 h): decrease
- PGRN secreted protein expression, longer treatment times (PGRN protein; NPCs, CI-994 10 μM, longer treatment times, vs vehicle): decreased
- PGRN protein levels, extended treatment (PGRN protein; [4]): did not significnatly enhance
- intracellular PGRN protein (PGRN protein; [5]): statistically significant decrease
- H3K9 acetylation (H3K9 acetylation): significantly increase

Compound: O=C(CCCCCCC(=O)Nc1ccccc1)NO [SAHA]
- FXN (frataxin) mRNA levels (FXN mRNA): does not
- upregulating GRN mRNA or PGRN (MSR293 cells): effective

Compound: O=C(NCC1(c2nc(-c3ccccc3)cs2)CCOCC1)c1cccc(-c2noc(C(F)(F)F)n2)c1 [TMP269]
- increasing GRN mRNA in NPCs (GRN mRNA; NPCs only (Figure S2)): not effective

Compound: CN1CCc2c(c3ccccc3n2Cc2ccc(C(=O)NO)cc2)C1 [Tubastatin A]
- H3K9 acetylation (H3K9 acetylation): robust effect

Compound: CCC(=O)CCCCC[C@@H]1NC(=O)[C@H]2CCCCN2C(=O)[C@H]([C@@H](C)CC)NC(=O)[C@H](Cc2cn(OC)c3ccccc23)NC1=O [apicidin]
- change of potency with prolonged incubation (in vitro kinetic profile) [2]: did not increase

Compound: Cc1[nH]c2ccccc2c1CCNCc1ccc(/C=C/C(=O)NO)cc1 [panobinostat]
- H3K27 acetylation in ChIP Region 1 on the GRN promoter [1]: significantly increased
- H3K27 acetylation in ChIP Region 2 [1]: Neither compound treatment increased
- H3K27 acetylation in ChIP Region 3 [1]: increased

Compound: CCCC(CCC)C(=O)O [valproate, valproic acid]
- serum concentration ([3]; chronic treatment, ref Kalu): 300 to 700 µM
- Cmax ([3]; read-out: brain concentration Cmax, estimated, ref Goldenberg): 400 µM
- change of potency with prolonged incubation (in vitro kinetic profile) [2]: did not increase
- increase of PGRN protein expression compared to vehicle (PGRN protein; cultured NPCs and neurons, valproate at doses lower than 1 mM (Figure S8)): 1.3–1.5 ×
